Assay results as given in the Deep4Chem optical property database.
Each block holds one molecule with its values, some of them ahead of it.

Test: solvent given as SMILES

fluorescence lifetime (in O): 0.4 ns
SMILES: NC(=O)C1=CN([C@H]2C[C@H](O)[C@@H](COP(=O)([O-])OP(=O)([O-])OC[C@H]3O[C@@H](n4cnc5c(N)ncnc54)C[C@@H]3O)O2)C=CC1

SMILES: c1ccc(-c2nc(-c3ccccc3)nc(-c3ccc(N4c5ccccc5C5(c6ccccc6-c6ccccc65)c5ccccc54)cc3)n2)cc1
fluorescence lifetime (in O=P(c1ccccc1)(c1ccccc1)c1ccccc1Oc1ccccc1P(=O)(c1ccccc1)c1ccccc1): 33 ns

fluorescence lifetime (in ClC(Cl)Cl): 2.34 ns
SMILES: C[N+]1=c2cc3c(cc2C(C)(C)CC1)=C(c1ccccc1C(=O)O)c1cc2c(cc1O3)Oc1cc3c(cc1=C2c1ccccc1C(=O)O)C(C)(C)CC[N+]=3C

SMILES: CC1(C)c2cccc(-c3nc(-c4ccccc4)nc(-c4ccccc4)n3)c2Oc2c(N3c4ccccc4Sc4ccccc43)cccc21
fluorescence lifetime (in Cc1ccccc1): 2.8 ns

fluorescence lifetime (in C1COCCO1): 2.9 ns
SMILES: CCC12C(=C3C(=C4c5ccc(-c6ccc(CO)cc6)cc5S(=O)(=O)C41CC)C(F)(F)C(F)(F)C3(F)F)c1ccc(-c3ccc(CO)cc3)cc1S2(=O)=O (stereo unspecified)

fluorescence lifetime (in C1CCOC1): 0.4 ns
fluorescence lifetime (in ClCCl): 0.4 ns
SMILES: CCCCCCCc1ccc(C2=[N+]3C(=C4c5cc(OCC(CC)CC)c(-c6ccc(CCCCCCC)o6)n5[B-](F)(F)[n+]5c4n(c4cc(C(C)(C)C)ccc45)[B-]3(F)F)C=C2OCC(CC)CC)o1

fluorescence lifetime (in C1CCOC1): 8.2 ns
SMILES: c1ccc(/C(=C(\c2ccccc2)c2cc(-c3ccc(-c4ccccc4)cc3)ccc2-c2ccc(-c3ccccc3)cc2)c2cc(-c3ccc(-c4ccccc4)cc3)ccc2-c2ccc(-c3ccccc3)cc2)cc1

SMILES: Nc1cccc2cc3ccccc3cc12
fluorescence lifetime (in C1CCCCC1): 29 ns

fluorescence lifetime (in CC#N): 0.93 ns
SMILES: COc1cccc(/C=C/c2ccccc2)c1

fluorescence lifetime (in CCCCCC): 53.7 ns
fluorescence lifetime (in CO): 71.8 ns
fluorescence lifetime (in ClCCl): 65.5 ns
SMILES: C[Si](C)(C)c1ccc2ccc3c([Si](C)(C)C)ccc4ccc1c2c43

fluorescence lifetime (in ClCCl): 1.36 ns
SMILES: COC(=O)c1cc(=O)n(C)c2cc(-c3cc(OC)c(OC)c(OC)c3)sc12

fluorescence lifetime (in CC#N): 3.6 ns
fluorescence lifetime (in CCCCCC): 3.5 ns
SMILES: c1ccc(-n2cccc2)cc1

fluorescence lifetime (in O): 3.27 ns
SMILES: N[C@@H](Cc1ccc(O)cc1)C(=O)O

SMILES: Cc1ccc(C2=[N+]3C(=Cc4c(C)cc(C)n4[B-]3(F)F)c3ccccc32)[nH]1
fluorescence lifetime (in C1CCOC1): 6.54 ns
fluorescence lifetime (in CC#N): 6.32 ns
fluorescence lifetime (in CCCCCC): 7.31 ns
fluorescence lifetime (in CO): 6.5 ns
fluorescence lifetime (in Cc1ccccc1): 6.17 ns
fluorescence lifetime (in ClCCl): 6.65 ns

fluorescence lifetime (in C1CCCCC1): 7.3 ns
fluorescence lifetime (in CC#N): 2.9 ns
fluorescence lifetime (in CO): 2.6 ns
fluorescence lifetime (in ClC(Cl)Cl): 0.3 ns
SMILES: CC1(C)CC(/N=C/c2ccc3ccc4cccc5ccc2c3c45)CC(C)(C)N1

fluorescence lifetime (in C1CCOC1): 8.6 ns
SMILES: Cc1ccc(-c2ccc(-c3ccc(-c4ccc(C)cc4)cc3/C(=C(/c3ccccc3)c3cc(-c4ccc(C)cc4)ccc3-c3ccc(-c4ccc(C)cc4)cc3)c3ccccc3)cc2)cc1

SMILES: FC(F)(F)c1cc2n(n1)[B-]1(c3ccccc3-c3ccccc31)[n+]1ccc3ccccc3c1-2
fluorescence lifetime (in C1CCCCC1): 1.22 ns
fluorescence lifetime (in Cc1ccccc1): 1.22 ns
fluorescence lifetime (in ClCCl): 13.7 ns

fluorescence lifetime (in O): 2.56 ns
SMILES: CCN(CC)c1ccc2c(c1)C(C)(C)C(=O)C=C2

fluorescence lifetime (in C1CCCCC1): 1.08 ns
fluorescence lifetime (in CC#N): 1.58 ns
SMILES: CN(C)c1ccc(-c2nc3cccnc3[nH]2)cc1

SMILES: O=C1c2ccc3c4ccc5c6c(ccc(c7ccc(c2c37)C(=O)N1c1ccncc1)c64)C(=O)N(c1ccncc1)C5=O
fluorescence lifetime (in C1CCOC1): 1.92 ns
fluorescence lifetime (in C1COCCO1): 3.27 ns
fluorescence lifetime (in CC(C)=O): 2.9 ns
fluorescence lifetime (in CC(C)O): 1.74 ns
fluorescence lifetime (in CCCCO): 1.85 ns
fluorescence lifetime (in CCO): 0.77 ns
fluorescence lifetime (in CCOC(C)=O): 1.34 ns
fluorescence lifetime (in CN(C)C=O): 1.69 ns
fluorescence lifetime (in CO): 0.79 ns
fluorescence lifetime (in CS(C)=O): 0.22 ns
fluorescence lifetime (in ClC(Cl)(Cl)Cl): 3.75 ns
fluorescence lifetime (in ClC(Cl)Cl): 3.74 ns

fluorescence lifetime (in c1cc(-c2cccc(-n3c4ccccc4c4ccccc43)c2)cc(-n2c3ccccc3c3ccccc32)c1): 9 ns
SMILES: Cc1cc(C)c2c(c1)c1cc(C)cc(C)c1n2-c1ccc2c(c1)B(c1c(C(C)C)cc(C(C)C)cc1C(C)C)c1cc(-n3c4c(C)cc(C)cc4c4cc(C)cc(C)c43)ccc1N2c1ccccc1

fluorescence lifetime (in O): 17.3 ns
SMILES: C[NH+](C)c1c2ccccc2cc2ccccc12

SMILES: CC(=O)c1ccc2ccc3cccc4ccc1c2c34
fluorescence lifetime (in C1CCOC1): 13.4 ns
fluorescence lifetime (in CC#N): 9.47 ns
fluorescence lifetime (in CCCCCC): 6.56 ns
fluorescence lifetime (in CCO): 0.784 ns
fluorescence lifetime (in CN(C)C=O): 5.34 ns
fluorescence lifetime (in CO): 0.538 ns
fluorescence lifetime (in Cc1ccccc1): 2.8 ns
fluorescence lifetime (in ClCCl): 4.8 ns

fluorescence lifetime (in ClC(Cl)Cl): 1.21 ns
SMILES: F[B-]1(F)OC(c2ccc(Br)cc2)=Cc2ccc3ccccc3[n+]21

SMILES: c1ccc(-c2nnc(-c3ccc(N4c5ccccc5N(c5ccccc5)c5ccccc54)cc3)o2)cc1
fluorescence lifetime (in Cc1ccccc1): 9 ns
fluorescence lifetime (in c1cc(-n2c3ccccc3c3ccccc32)cc(-n2c3ccccc3c3ccccc32)c1): 7 ns

fluorescence lifetime (in ClCCl): 0.3 ns
SMILES: CC1=C(c2ccc(N(c3ccccc3)c3ccccc3)cc2)C(C)=[N+]2C1=C(c1c(-c3ccccn3)nc3ccccn13)c1c(C)c(-c3ccc(N(c4ccccc4)c4ccccc4)cc3)c(C)n1[B-]2(F)F

fluorescence lifetime (in C1CCOC1): 1.62 ns
SMILES: CC(C)(C)c1ccc(C2=C(c3ccc(C(C)(C)C)cc3)[Si](c3ccccc3)(c3ccccc3)c3ccccc32)cc1
